# Assay results taken from patent US11542316B2, “S-Arrestin peptides and therapeutic uses thereof” (APITOPE INTERNATIONAL NV, priority 2017, dated 2023).
# Ends that are not written are not given here.
# Test system: LN cells and splenocytes upon SAg or peptide restimulation
# Experiment: Ex vivo tolerization experiment, DR2tg mice
# Type: in vivo
# Conditions: DR2 mice, IFN-γ
# Description: FIG. 7: Ex vivo tolerisation protocol. Mice are injected subcutaneously in the flank with 0.1 μg/ml, 1 μg/ml and 10 μg/ml peptide on days −15, −13 and −11, followed by 3 injections of 100 μg/ml on days −8, −6 and −4 (escalating dose regime). On day 0, mice are immunized subcutaneously at the base of the tail with SAg/CFA or peptide/CFA. Mice are sacrificed 10 days after immunization to measure proliferation of LN cells and splenocytes upon SAg or peptide restimulation. LN, lymph nodes.
# FIG. 11: Ex vivo tolerance induction by HIP-9K1-KKK apitope. DR2 mice are injected subcutaneously in the flank with 0.1 μg/ml, 1 μg/ml and 10 μg/ml HIP-9K1-KKK on days −15, −13 and −11, followed by 3 injections of 100 μg/ml on days −8, −6 and −4 (escalating dose regime). On day 0, mice are immunized subcutaneously at the base of the tail with HIP-9FL/CFA. Mice are sacrificed 10 days after immunization to measure proliferation of LN cells and splenocytes upon SAg or peptide restimulation. Data represent mean±SEM of the concentration values for the PBS-treated mice (black lines) and peptide-treated mice (color lines). IFN-γ production expressed as IFN-γ concentration (pg/ml). Two-way ANOVA was used to measure overall treatment effects on T cell activation and p-values are written in the graphs. Bonferonni post-hoc testing was used and significant differences are indicated in the graphs (* p<0.05; **** p<0.0001). LN, lymph nodes. (A) Tolerisation against SAg in LN. (B) Tolerisation against HIP-9FL and HIP-9K1-KKK in LN. (C) Tolerisation against SAg in spleen. (D) Tolerisation against HIP-9FL and HIP-9K1-KKK in spleen.
# FIG. 13: Ex vivo tolerance induction by HIP-12G1-KKK apitope. DR2 mice are injected subcutaneously in the flank with 0.1 μg/ml, 1 μg/ml and 10 μg/ml HIP-12G1-KKK on days −15, −13 and −11, followed by 3 injections of 100 μg/ml on days −8, −6 and −4 (escalating dose regime). On day 0, mice are immunized subcutaneously at the base of the tail with HIP-12AK/CFA. Mice are sacrificed 10 days after immunization to measure proliferation of LN cells and splenocytes upon SAg or peptide restimulation. Data represent mean±SEM of the concentration values for the PBS-treated mice (black lines) and peptide-treated mice (color lines). IFN-γ production expressed as IFN-γ concentration (pg/ml). Two-way ANOVA was used to measure overall treatment effects on T cell activation and p-values are written in the graphs. Bonferonni post-hoc testing was used and significant differences are indicated in the graphs (** p<0.01; *** p<0.001: **** p<0.0001). LN, lymph nodes. (A) Tolerisation against HIP-12G1-KKK and HIP-12G1 in LN. (B) Tolerisation against HIP-12G1-KKK in spleen.
# DR3tg or DR2tg mice were injected subcutaneously in the flank region with 0.1 μg, 1 μg and 10 μg of peptide on days −15, −13 and −11 respectively, followed by 3 injections of 100 μg peptide on days −8, −6 and −4 (dose escalation schedule). On day 0, the mice were immunised subcutaneously in the base of the tail with 50 μg antigen (parental peptide) emulsified in CFA (peptide/CFA). Ten days after immunisation, draining lymph nodes (LN) and spleens were harvested. LN cells and splenocytes were isolated and cultured in X-vivo 15 medium (supplemented with 2 mM L-glutamine, 50 U/mL penicillin and 50 U/mL streptomycin; Lonza) in 96-well flat bottom plates. To investigate antigen-induced cell proliferation, 0.5×10^6 cells/well were cultured (200 μl/well) for 72 hours with different antigen concentrations (0-25 μg/ml) or with 12.5 μg/ml purified protein derivative (PPD; priming control; Statens serum institut, Copenhagen, Denmark). After 72 hours, supernatant was harvested and stored at −80° C. until further analysis. IFN-γ concentrations in supernatants were assessed by cytokine ELISA (R&D Systems, Abingdon, UK) to measure cell activation.
substance,measurement,setting,value
"KKKAFVEQVANVVLKKK-NH2 [HIP-9K1-KKK, KKKAFVEQVANVVLKKK]",tolerization against the peptide itself / parental peptide,LN,tolerization induced
same,tolerization against SAg,"LN, escalating dose regime s.c.",tolerization induced
same,tolerization against SAg,spleen,Tolerance is also induced
same,tolerization against the peptide itself,spleen,Tolerance is also induced
